Tested on: NOMO1
Test: cell viability relative to DMSO control; higher = less cytotoxic
Settings: 48 h
How it was run: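 Viability, reported as a per-plate percentage of DMSO wells with cell-free wells as background, came from CellTiter-Glo One luminescence. Reading took place after 48 h at 37°C. Before that, NOMO1 or SEM (500 cells/well) or P12-Ichikawa (1000 cells/well) leukemia cells, adapted for at least four passages in each medium, were seeded in 1536-well plates (5 μl) and pin-dosed with library compounds in DMSO, 47 μM to 0.79 nM over 11 threefold points.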

[1] = HPLM + 10% dialyzed FBS, 0.000781 µM
[2] = HPLM + 10% dialyzed FBS, 0.00234 µM
[3] = HPLM + 10% dialyzed FBS, 0.00702 µM
[4] = HPLM + 10% dialyzed FBS, 0.0211 µM
[5] = HPLM + 10% dialyzed FBS, 0.0632 µM
[6] = HPLM + 10% dialyzed FBS, 0.19 µM
[7] = HPLM + 10% dialyzed FBS, 0.569 µM
[8] = HPLM + 10% dialyzed FBS, 1.71 µM
[9] = HPLM + 10% dialyzed FBS, 5.12 µM
[10] = HPLM + 10% dialyzed FBS, 15.4 µM
[11] = HPLM + 10% dialyzed FBS, 46.1 µM
[12] = RPMI 5 mM glucose + 10% FBS, 0.000781 µM
[13] = RPMI 5 mM glucose + 10% FBS, 0.00234 µM
[14] = RPMI 5 mM glucose + 10% FBS, 0.00702 µM
[15] = RPMI 5 mM glucose + 10% FBS, 0.0211 µM
[16] = RPMI 5 mM glucose + 10% FBS, 0.0632 µM
[17] = RPMI 5 mM glucose + 10% FBS, 0.19 µM
[18] = RPMI 5 mM glucose + 10% FBS, 0.569 µM
[19] = RPMI 5 mM glucose + 10% FBS, 1.71 µM
[20] = RPMI 5 mM glucose + 10% FBS, 5.12 µM
[21] = RPMI 5 mM glucose + 10% FBS, 15.4 µM
[22] = RPMI 5 mM glucose + 10% FBS, 46.1 µM
[23] = RPMI 5 mM glucose + 10% dialyzed FBS, 0.000781 µM
[24] = RPMI 5 mM glucose + 10% dialyzed FBS, 0.00234 µM
[25] = RPMI 5 mM glucose + 10% dialyzed FBS, 0.00702 µM
[26] = RPMI 5 mM glucose + 10% dialyzed FBS, 0.0211 µM
[27] = RPMI 5 mM glucose + 10% dialyzed FBS, 0.0632 µM
[28] = RPMI 5 mM glucose + 10% dialyzed FBS, 0.19 µM
[29] = RPMI 5 mM glucose + 10% dialyzed FBS, 0.569 µM
[30] = RPMI 5 mM glucose + 10% dialyzed FBS, 1.71 µM
[31] = RPMI 5 mM glucose + 10% dialyzed FBS, 5.12 µM
[32] = RPMI 5 mM glucose + 10% dialyzed FBS, 15.4 µM
[33] = RPMI 5 mM glucose + 10% dialyzed FBS, 46.1 µM

## Cc1ccc(C(=O)c2cc(O)c(O)c([N+](=O)[O-])c2)cc1
[1]
  cell viability: 91.5%
[2]
  cell viability: 104%
[3]
  cell viability: 98.2%
[4]
  cell viability: 100%
[5]
  cell viability: 116%
[6]
  cell viability: 101%
[7]
  cell viability: 115%
[8]
  cell viability: 89.5%
[9]
  cell viability: 80.7%
[10]
  cell viability: 83.2%
[11]
  cell viability: 86.4%
[12]
  cell viability: 90.3%
[13]
  cell viability: 86.4%
[14]
  cell viability: 83.6%
[15]
  cell viability: 90.6%
[16]
  cell viability: 96%
[17]
  cell viability: 83.7%
[18]
  cell viability: 90.9%
[19]
  cell viability: 81.7%
[20]
  cell viability: 94.6%
[21]
  cell viability: 87.3%
[22]
  cell viability: 92.2%
[23]
  cell viability: 100%
[24]
  cell viability: 98%
[25]
  cell viability: 79.4%
[26]
  cell viability: 92.1%
[27]
  cell viability: 99.6%
[28]
  cell viability: 105%
[29]
  cell viability: 108%
[30]
  cell viability: 94.3%
[31]
  cell viability: 81.8%
[32]
  cell viability: 88.4%
[33]
  cell viability: 103%

## O=C1NC(=O)/C(=C/c2cccc(C(F)(F)F)c2)S1
[1]
  cell viability: 114%
[2]
  cell viability: 95.1%
[3]
  cell viability: 96.8%
[4]
  cell viability: 113%
[5]
  cell viability: 102%
[6]
  cell viability: 98.4%
[7]
  cell viability: 108%
[8]
  cell viability: 99.1%
[9]
  cell viability: 92.8%
[10]
  cell viability: 96.9%
[11]
  cell viability: 90%
[12]
  cell viability: 90.3%
[13]
  cell viability: 90.2%
[14]
  cell viability: 94.1%
[15]
  cell viability: 101%
[16]
  cell viability: 106%
[17]
  cell viability: 97.8%
[18]
  cell viability: 97.8%
[19]
  cell viability: 93.2%
[20]
  cell viability: 101%
[21]
  cell viability: 96.5%
[22]
  cell viability: 80.1%
[23]
  cell viability: 95.5%
[24]
  cell viability: 99.6%
[25]
  cell viability: 99%
[26]
  cell viability: 104%
[27]
  cell viability: 93.1%
[28]
  cell viability: 92.9%
[29]
  cell viability: 93.2%
[30]
  cell viability: 108%
[31]
  cell viability: 103%
[32]
  cell viability: 87.9%
[33]
  cell viability: 92.2%

## C[N+](C)([O-])CCNc1ccc(NCC[N+](C)(C)[O-])c2c1C(=O)c1c(O)ccc(O)c1C2=O
[1]
  cell viability: 84.5%
[2]
  cell viability: 94.9%
[3]
  cell viability: 96.7%
[4]
  cell viability: 103%
[5]
  cell viability: 108%
[6]
  cell viability: 97.2%
[7]
  cell viability: 80.6%
[8]
  cell viability: 70.2%
[9]
  cell viability: 51.2%
[10]
  cell viability: 48%
[11]
  cell viability: 38.3%
[12]
  cell viability: 84.4%
[13]
  cell viability: 86.9%
[14]
  cell viability: 84.1%
[15]
  cell viability: 97.2%
[16]
  cell viability: 89.4%
[17]
  cell viability: 94.5%
[18]
  cell viability: 91.4%
[19]
  cell viability: 90.4%
[20]
  cell viability: 33%
[21]
  cell viability: 55.8%
[22]
  cell viability: 19.8%
[23]
  cell viability: 90.3%
[24]
  cell viability: 93.6%
[25]
  cell viability: 92.6%
[26]
  cell viability: 92.7%
[27]
  cell viability: 102%
[28]
  cell viability: 99.6%
[29]
  cell viability: 90.5%
[30]
  cell viability: 77%
[31]
  cell viability: 59.7%
[32]
  cell viability: 48.5%
[33]
  cell viability: 44%

## Nc1nc(OCc2ccccc2)c2nc[nH]c2n1
[12]
  cell viability: 95.7%
[13]
  cell viability: 117%
[14]
  cell viability: 103%
[15]
  cell viability: 109%
[16]
  cell viability: 113%
[17]
  cell viability: 101%
[18]
  cell viability: 133%
[19]
  cell viability: 107%
[20]
  cell viability: 108%
[21]
  cell viability: 108%
[22]
  cell viability: 115%
[23]
  cell viability: 110%
[24]
  cell viability: 119%
[25]
  cell viability: 123%
[26]
  cell viability: 118%
[27]
  cell viability: 128%
[28]
  cell viability: 125%
[29]
  cell viability: 122%
[30]
  cell viability: 110%
[31]
  cell viability: 116%
[32]
  cell viability: 129%
[33]
  cell viability: 123%

## Cc1cc(Cl)ccc1OCCCC(=O)NO
[1]
  cell viability: 106%
[2]
  cell viability: 117%
[3]
  cell viability: 107%
[4]
  cell viability: 94.8%
[5]
  cell viability: 110%
[6]
  cell viability: 122%
[7]
  cell viability: 117%
[8]
  cell viability: 112%
[9]
  cell viability: 103%
[10]
  cell viability: 67%
[11]
  cell viability: 33.5%
[12]
  cell viability: 93.5%
[13]
  cell viability: 112%
[14]
  cell viability: 93.2%
[15]
  cell viability: 112%
[16]
  cell viability: 113%
[17]
  cell viability: 96.9%
[18]
  cell viability: 106%
[19]
  cell viability: 107%
[20]
  cell viability: 94%
[21]
  cell viability: 52.3%
[22]
  cell viability: 15.9%
[23]
  cell viability: 105%
[24]
  cell viability: 121%
[25]
  cell viability: 101%
[26]
  cell viability: 114%
[27]
  cell viability: 99.5%
[28]
  cell viability: 104%
[29]
  cell viability: 119%
[30]
  cell viability: 114%
[31]
  cell viability: 117%
[32]
  cell viability: 73.4%
[33]
  cell viability: 31%

## CN(C)CC/C=C1/c2ccccc2COc2ccc(CC(=O)O)cc21
[12]
  cell viability: 112%
[13]
  cell viability: 115%
[14]
  cell viability: 120%
[15]
  cell viability: 128%
[16]
  cell viability: 153%
[17]
  cell viability: 131%
[18]
  cell viability: 148%
[19]
  cell viability: 166%
[20]
  cell viability: 153%
[21]
  cell viability: 149%
[22]
  cell viability: 147%

## COc1ccc2c(c1OC)CN1CCc3cc4c(cc3C1C2)OCO4 (stereo unspecified)
[1]
  cell viability: 86.4%
[2]
  cell viability: 82.4%
[3]
  cell viability: 98.4%
[4]
  cell viability: 99.3%
[5]
  cell viability: 109%
[6]
  cell viability: 82.5%
[7]
  cell viability: 96.7%
[8]
  cell viability: 44.7%
[9]
  cell viability: 14.9%
[10]
  cell viability: 6.67%
[11]
  cell viability: 5.61%
[12]
  cell viability: 106%
[13]
  cell viability: 92.4%
[14]
  cell viability: 89.2%
[15]
  cell viability: 98.8%
[16]
  cell viability: 98.4%
[17]
  cell viability: 89.9%
[18]
  cell viability: 100%
[19]
  cell viability: 42.6%
[20]
  cell viability: 16%
[21]
  cell viability: 6.1%
[22]
  cell viability: 5.21%
[23]
  cell viability: 88%
[24]
  cell viability: 92.7%
[25]
  cell viability: 93.3%
[26]
  cell viability: 103%
[27]
  cell viability: 102%
[28]
  cell viability: 92.2%
[29]
  cell viability: 92.9%
[30]
  cell viability: 49.3%
[31]
  cell viability: 20.5%
[32]
  cell viability: 5.52%
[33]
  cell viability: 4.95%

## CC(C)(C)NC(=O)[C@@H]1CN(Cc2cccnc2)CCN1C[C@@H](O)C[C@@H](Cc1ccccc1)C(=O)N[C@H]1c2ccccc2C[C@H]1O.O=S(=O)(O)O
[1]
  cell viability: 103%
[2]
  cell viability: 122%
[3]
  cell viability: 111%
[4]
  cell viability: 108%
[5]
  cell viability: 117%
[6]
  cell viability: 105%
[7]
  cell viability: 106%
[8]
  cell viability: 127%
[9]
  cell viability: 122%
[10]
  cell viability: 130%
[11]
  cell viability: 90.9%
[12]
  cell viability: 112%
[13]
  cell viability: 112%
[14]
  cell viability: 128%
[15]
  cell viability: 128%
[16]
  cell viability: 120%
[17]
  cell viability: 119%
[18]
  cell viability: 132%
[19]
  cell viability: 136%
[20]
  cell viability: 133%
[21]
  cell viability: 130%
[22]
  cell viability: 107%
[23]
  cell viability: 99.5%
[24]
  cell viability: 117%
[25]
  cell viability: 123%
[26]
  cell viability: 116%
[27]
  cell viability: 120%
[28]
  cell viability: 119%
[29]
  cell viability: 125%
[30]
  cell viability: 155%
[31]
  cell viability: 145%
[32]
  cell viability: 136%
[33]
  cell viability: 98%
